We go through 27 molecules from patent US10155741B2, “Pyridine or pyrimidine derivatives” (Hoffmann-La Roche Inc., priority 2015, dated 2018).

A word on the melting point: it is the temperature of the solid-liquid transition. The term Kb denotes the equilibrium dissociation constant of an antagonist, usually derived from a functional assay. A higher Kb goes with lower antagonist affinity.

System in the first series: not given
Test: not given
Conditions: not given
In turn, `CC(C)c1ncncc1-c1cc(C(=O)NC(C)(C)C)cc(-c2ccc(F)c(F)c2)n1` [Example 7, N-tert-Butyl-2-(3,4-difluorophenyl)-6-(4-propan-2-yl-pyrimidin-5-yl)-pyridine-4-carboxamide] came in with a melting point of 178 °C.

The next series concerns the target T1, human EAAT3 (Homo sapiens, UniProt P43005).
T1 construct: expressed in transfected cells
T1 sequence (P43005 1-524): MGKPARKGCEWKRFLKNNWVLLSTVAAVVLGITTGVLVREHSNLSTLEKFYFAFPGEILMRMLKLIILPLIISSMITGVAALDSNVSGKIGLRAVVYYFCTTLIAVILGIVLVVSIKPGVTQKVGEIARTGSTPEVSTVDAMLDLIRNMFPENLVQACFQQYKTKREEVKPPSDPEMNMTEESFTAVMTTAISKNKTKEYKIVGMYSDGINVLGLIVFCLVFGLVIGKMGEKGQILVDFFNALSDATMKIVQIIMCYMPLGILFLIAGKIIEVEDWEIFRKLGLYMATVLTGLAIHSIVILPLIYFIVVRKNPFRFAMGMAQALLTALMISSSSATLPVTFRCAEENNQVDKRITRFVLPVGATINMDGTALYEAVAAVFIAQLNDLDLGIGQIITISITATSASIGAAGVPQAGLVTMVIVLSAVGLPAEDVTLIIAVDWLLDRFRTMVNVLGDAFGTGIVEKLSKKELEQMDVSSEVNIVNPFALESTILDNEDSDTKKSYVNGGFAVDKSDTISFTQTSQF
The experiment in a line: FLIPR Membrane Potential (FMP) assay, antagonist potency at human EAAT3. The series is classed as cell-based. The note with it: HEK-293 cells stably expressing human EAAT3; L-glutamate as agonist at EC80; antagonist applied 15 min before; Kb by Cheng-Prusoff equation. As to the method:
The FLIPR Membrane Potential (FMP) Assay
HEK-293 cells stably expressing human EAAT3 were seeded at 55 000 cells/well in growth medium (DMEM glutamate free (Invitrogen 11960-044), 1% Pen Strep (10 ml/l GIBCO BRL No 15140-023), 10% FCS non dialysed heat inactivated, 5 mg/l puromycin) in poly-D-lysine treated 96-well black microtiter plates with clear-bottom. After 24 h, the growth medium was removed and 100 μl/well of Krebs buffer (140 mM NaCl, 4.7 mM KCl, 2.5 mM CaCl2, 1.2 mM MgCl2, 11 mM HEPES, 10 mM D-glucose, pH=7.4) added. The cells were then loaded by adding 100 μl/well FMP assay dye (FLIPR Membrane Potential assay reagent, Molecular Devices). The 96-well plates were then incubated at 37° C. for 1 h. The depolarization of the cells will cause more dye to enter in the cells, where it will bind to intracellular proteins and lipids and cause an increase in the fluorescence signal. Antagonist potency at human EAAT3 was determined by using L-glutamate as agonist at a concentration which gives 80% of the maximum response. The antagonists were applied 15 min before the application of the agonist L-glutamate. The assays were performed at room temperature and measurements done by using a Fluorometric Imaging Plate Reader (FLIPR, Molecular Devices) and filter #2. Responses were measured as peak increase in fluorescence minus basal (i.e. fluorescence without addition of L-glutamate). Kb was determined using the Cheng-Prusoff equation Kb=IC50/[1+(A/EC50)], where IC50 is the concentration of the antagonist producing 50% inhibition, A is the concentration of the agonist against which the IC50 is being determined (at EC80) and EC50 is the concentration of the agonist producing 50% […].
Molecule `CC(C)c1ncncc1-c1cc(C(=O)NC2(C)CCS(=O)(=O)C2)cc(-c2ccc(F)cc2)n1` (racemic) [Example 17, (RS)-2-(4-Fluorophenyl)-N-(3-methyl-1,1-dioxothiolan-3-yl)-6-(4-propan-2-yl-pyrimidin-5-yl)-pyridine-4-carboxamide] showed an antagonist equilibrium constant (Kb) of 270 nM.
In the case of `CC(C)c1ncncc1-c1cc(C(=O)NC(C)(C)C)cc(-c2ccc(Cl)cc2)n1` [Example 1, N-tert-Butyl-2-(4-chlorophenyl)-6-(4-propan-2-yl-pyrimidin-5-yl)-pyridine-4-carboxamide], the antagonist dissociation constant (Kb) worked out at 100 nM. Against the preceding molecule, the Kb is about 2.7-fold lower.
The same measure, in the same setting: for `CC(C)c1ncncc1-c1cc(C(=O)NC(C)(C)C)cc(-c2ccc(F)cc2)n1` [Example 2, N-tert-Butyl-2-(4-fluorophenyl)-6-(4-propan-2-yl-pyrimidin-5-yl)-pyridine-4-carboxamide] the value was 120 nM.
`CC(C)c1ncncc1-c1cc(C(=O)NC(C)(C)C)cc(-c2ccc(C(F)(F)F)cc2)n1` [Example 3, N-tert-Butyl-2-(4-propan-2-yl-pyrimidin-5-yl)-6-[4-(trifluoromethyl)-phenyl]-pyridine-4-carboxamide]: the Kb came out at 110 nM.
Still for that read-out and setting: for `Cc1ccncc1-c1cc(C(=O)NC(C)(C)C)cc(-c2ccc(F)cc2)n1` [Example 4, N-tert-Butyl-2-(4-fluorophenyl)-6-(4-methylpyridin-3-yl)-pyridine-4-carboxamide] the value was 260 nM.
The molecule `Cc1ccncc1-c1cc(C(=O)NC(C)(C)C)cc(-c2ccc(Cl)cc2)n1` [Example 5, N-tert-Butyl-2-(4-chlorophenyl)-6-(4-methylpyridin-3-yl)-pyridine-4-carboxamide] registered a Kb of 220 nM.
Molecule `Cc1ccc(-c2cc(C(=O)NC(C)(C)C)cc(-c3cncnc3C(C)C)n2)cc1` [Example 6, N-tert-Butyl-2-(4-methylphenyl)-6-(4-propan-2-yl-pyrimidin-5-yl)-pyridine-4-carboxamide] gave a Kb of 140 nM.
Still for that read-out and setting: for `CC(C)c1ncncc1-c1cc(C(=O)NC(C)(C)C)cc(-c2ccc(F)c(F)c2)n1` [Example 7, N-tert-Butyl-2-(3,4-difluorophenyl)-6-(4-propan-2-yl-pyrimidin-5-yl)-pyridine-4-carboxamide] the value was 110 nM; for `Cc1cc(-c2cc(C(=O)NC(C)(C)C)cc(-c3cncnc3C(C)C)n2)ccc1F` [Example 8, N-tert-Butyl-2-(4-fluoro-3-methylphenyl)-6-(4-propan-2-yl-pyrimidin-5-yl)-pyridine-4-carboxamide], 260 nM.
The same measure, in the same setting: for `CC(C)c1ncncc1-c1cc(C(=O)NC(C)(C)C)cc(-c2ccc(Cl)c(F)c2)n1` [Example 9, N-tert-Butyl-2-(4-chloro-3-fluorophenyl)-6-(4-propan-2-yl-pyrimidin-5-yl)-pyridine-4-carboxamide] the value was 260 nM.
On to `CC(C)c1ncncc1-c1cc(C(=O)NC(C)(C)C)cc(-c2ccc(C3CC3)cc2)n1` [Example 10, N-tert-Butyl-2-(4-cyclopropyl-phenyl)-6-(4-propan-2-yl-pyrimidin-5-yl)-pyridine-4-carboxamide], for which the Kb amounted to 290 nM.
Turning to `CC(C)c1ncncc1-c1cc(C(=O)NC(C)(C)C2CC2)cc(-c2ccc(Cl)cc2)n1` [Example 11, 2-(4-Chlorophenyl)-N-(2-cyclopropyl-propan-2-yl)-6-(4-propan-2-yl-pyrimidin-5-yl)-pyridine-4-carboxamide], the antagonist equilibrium constant (Kb) is 150 nM. This Kb is about 1.9-fold lower than that of the molecule before.
On the same count and under the same terms, for `CC(C)c1ncncc1-c1cc(C(=O)NC(C)(C)C#N)cc(-c2ccc(Cl)cc2)n1` [Example 12, 2-(4-Chlorophenyl)-N-(2-cyanopropan-2-yl)-6-(4-propan-2-yl-pyrimidin-5-yl)-pyridine-4-carboxamide] the value was 470 nM; for `CC(C)c1ncncc1-c1cc(C(=O)NC(C)(C)CO)cc(-c2ccc(Cl)cc2)n1` [Example 13, 2-(4-Chlorophenyl)-N-(1-hydroxy-2-methylpropan-2-yl)-6-(4-propan-2-yl-pyrimidin-5-yl)-pyridine-4-carboxamide], 200 nM; for `CC(C)c1ncncc1-c1cc(C(=O)NC(C)(C)C(F)(F)F)cc(-c2ccc(Cl)cc2)n1` [Example 14, 2-(4-Chlorophenyl)-6-(4-propan-2-yl-pyrimidin-5-yl)-N-(1,1,1-trifluoro-2-methylpropan-2-yl)-pyridine-4-carboxamide], 270 nM.
With `COc1ccc(-c2cc(C(=O)NC(C)(C)C)cc(-c3cncnc3C(C)C)n2)cc1` [Example 15, N-tert-Butyl-2-(4-methoxyphenyl)-6-(4-propan-2-yl-pyrimidin-5-yl)-pyridine-4-carboxamide], the Kb was 310 nM. This Kb and that of the molecule before are within 1.5-fold of each other.
On the same count and under the same terms, for `Cc1ccc(-c2cc(C(=O)NC(C)(C)C)cc(-c3cncnc3C(C)C)n2)cc1F` [Example 16, N-tert-Butyl-2-(3-fluoro-4-methylphenyl)-6-(4-propan-2-yl-pyrimidin-5-yl)-pyridine-4-carboxamide] the value was 250 nM.
In the case of `CCC(C)(C)NC(=O)c1cc(-c2ccc(F)cc2)nc(-c2cncnc2C(C)C)c1` [Example 18, 2-(4-Fluorophenyl)-N-(2-methylbutan-2-yl)-6-(4-propan-2-yl-pyrimidin-5-yl)-pyridine-4-carboxamide], the Kb was determined as 120 nM. This Kb lies about 2.1-fold lower than the previous one.
`CCc1ncncc1-c1cc(C(=O)NC(C)(C)C)cc(-c2ccc(F)cc2)n1` [Example 19, N-tert-Butyl-2-(4-ethyl-pyrimidin-5-yl)-6-(4-fluorophenyl)-pyridine-4-carboxamide] returned an antagonist equilibrium constant (Kb) of 180 nM.
For `Cc1ncncc1-c1cc(C(=O)NC(C)(C)C)cc(-c2ccc(F)cc2)n1` [Example 20, N-tert-Butyl-2-(4-fluorophenyl)-6-(4-methylpyrimidin-5-yl)-pyridine-4-carboxamide], the Kb came to 480 nM. Compared with the last molecule, the Kb is about 2.7-fold higher.
In turn, `CC(C)(C)NC(=O)c1cc(-c2ccc(F)cc2)nc(-c2cncnc2C2CC2)c1` [Example 21, N-tert-Butyl-2-(4-cyclopropylpyrimidin-5-yl)-6-(4-fluorophenyl)-pyridine-4-carboxamide] had an antagonist equilibrium constant (Kb) of 560 nM.
For `CC(C)(C)NC(=O)c1cc(-c2ccc(F)cc2)nc(-c2cncnc2C(C)(C)C)c1` [Example 22, N-tert-Butyl-2-(4-tert-butyl-pyrimidin-5-yl)-6-(4-fluorophenyl)-pyridine-4-carboxamide], the Kb was found to be 63 nM.
On the same count and under the same terms, for `CC(C)(C)NC(=O)c1cc(-c2ccc(Cl)cc2)nc(-c2cncnc2C(C)(C)C)c1` [Example 23, N-tert-Butyl-2-(4-tert-butylpyrimidin-5-yl)-6-(4-chlorophenyl)-pyridine-4-carboxamide] the value was 140 nM; for `CC(C)(C)NC(=O)c1cc(-c2ccc(C(F)(F)F)cc2)nc(-c2cncnc2C(C)(C)C)c1` [Example 24, N-tert-Butyl-2-(4-tert-butyl-pyrimidin-5-yl)-6-[4-(trifluoromethyl)-phenyl]-pyridine-4-carboxamide], 290 nM.
`CC(C)c1ccncc1-c1cc(C(=O)NC(C)(C)C)cc(-c2ccc(C(F)(F)F)cc2)n1` [Example 25, N-tert-Butyl-2-(4-propan-2-yl-pyridin-3-yl)-6-[4-(trifluoromethyl)-phenyl]-pyridine-4-carboxamide] came in with an antagonist dissociation constant (Kb) of 350 nM.
`CC(C)c1ccncc1-c1cc(C(=O)NC(C)(C)C)cc(-c2ccc(Cl)cc2)n1` [Example 26, N-tert-Butyl-2-(4-chlorophenyl)-6-(4-propan-2-yl-pyridin-3-yl)-pyridine-4-carboxamide] displayed a Kb of 310 nM.
Regarding `CC(C)c1ccncc1-c1cc(C(=O)NC(C)(C)C)cc(-c2ccc(F)cc2)n1` [Example 27, N-tert-Butyl-2-(4-fluorophenyl)-6-(4-propan-2-yl-pyridin-3-yl)-pyridine-4-carboxamide], the antagonist equilibrium constant (Kb) was determined as 170 nM.
